From patent US20090087495A1, “Food for Improving Motor Function” (Nippon Meat Packers, Inc., priority 2005, published 2009)

Test system: male ddY mice
Assay: Stamina improvement: swimming until exhaustion in a running water pool
Format: in vivo
Details: material 10 mg/ml, oral 10 ml/kg once a day for seven days; 10 animals per group; relative value, Comparative Example 21 (control) = 100
Description: The test solution was given to mice to check for the influence on the improvement of stamina. Five-week-old male ddY mice (purchased from Japan SLC Co. Ltd.) were raised, letting them be free to take solid feed (CE-2, Japan Clare Co. Ltd., Tokyo) and water (10 mice per group). […] After one week of preparatory raising and swim training, they were allowed to freely take ordinary solid feed and water. […] On the day just before start of giving the test solution and on the 7th day after start of giving the test solution, the experimental animals were let to swim until exhaustion in the pool (velocity at center: 23.6 cm/sec.) to measure the swimming duration and to obtain the elongation of the swimming duration in seven days.

Compound	Elongation of swimming duration (%), without chicken extract powder
CN(CC(=O)O)C(=N)N [Comparative Example 1, creatine]	110%
N=C(N)NCCC[C@H](N)C(=O)O [Comparative Example 2, arginine]	110%
Cn1c(=O)c2c(ncn2C)n(C)c1=O [Comparative Example 6, caffeine]	110%
O=C(O)CC(O)(CC(=O)O)C(=O)O [Comparative Example 7, citric acid]	110%
C[N+](C)(C)CC(O)CC(=O)[O-] (stereo not drawn) [Comparative Example 8, carnitine]	110%
O=C(O)CCCCC1CCSS1 (stereo not drawn) [Comparative Example 9, thioctic acid]	110%
C/C=C1/[C@H](O[C@@H]2O[C@H](CO)[C@@H](O)[C@H](O)[C@H]2O)OC=C(C(=O)OC)[C@H]1CC(=O)OCCc1ccc(O)c(O)c1 [Comparative Example 13, oleuropein]	120%
COC1=C(OC)C(=O)C(C/C=C(\C)CC/C=C(\C)CC/C=C(\C)CC/C=C(\C)CC/C=C(\C)CC/C=C(\C)CC/C=C(\C)CC/C=C(\C)CC/C=C(\C)CCC=C(C)C)=C(C)C1=O [Comparative Example 14, ubiquinone (CoQ10)]	110%
antocyanine [Comparative Example 12]	120%
heme iron [Comparative Example 10]	110%
proanthocyanidin [Comparative Example 11]	110%
tocotrienol [Comparative Example 15]	120%
